Measurements reported in PubChem BioAssay (NCI).
Values joined by “and” are separate entries in the source; they are usually repeats but may differ in a detail not shown here. Equal values may be shown once.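 Where inhibition never reached the appropriate level, the endpoint shown equals the highest concentration tested. Otherwise, values were interpolated linearly from a five-concentration, 48-hour dose response in 96-well plates. The concentration for 50% growth inhibition is given as GI50. TGI: concentration producing complete growth inhibition.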

Tests used:
Experiment in all cases: inhibition of tumour cell growth, NCI panel, 48 h
[1] = test system: TK-10 renal
[2] = test system: SNB-75 CNS
[3] = test system: SNB-19 CNS
[4] = test system: ACHN renal
[5] = test system: A498 renal
[6] = test system: SF-539 CNS
[7] = test system: SF-268 CNS
[8] = test system: MOLT-4 leukemia
[9] = test system: SR leukemia
[10] = test system: HOP-92 NSCLC

SMILES	GI50 [1]	TGI [1]	GI50 [2]	TGI [2]	GI50 [3]	TGI [3]	GI50 [4]	TGI [4]	GI50 [5]	TGI [5]	GI50 [6]	TGI [6]	GI50 [7]	TGI [7]	TGI [8]	TGI [9]	TGI [10]	GI50 [8]	GI50 [10]	GI50 [9]
CCC(c1cccc(O)c1)C(CC)c1cccc(O)c1 (stereo not drawn)	2.93 µM	20.4 µM	0.973 µM	11.7 µM	13.2 µM	26 µM	5.64 µM	18.9 µM	4.35 µM	16.7 µM	1.23 µM	4.72 µM	5.18 µM	20.3 µM	–	–	–	–	–	–
CC(=O)O[C@@H]1C2C(=O)OC(=O)C2C2CCC[C@]23O[C@H]13 (stereo partly drawn)	–	> 100 µM	–	> 100 µM	–	> 100 µM	–	> 100 µM	–	> 100 µM	–	> 100 µM	–	> 100 µM	> 100 µM	> 100 µM	–	–	–	–
COc1cc(Br)c(C=Nc2cccc3ccc(OS(=O)(=O)c4cccc([N+](=O)[O-])c4)cc23)cc1OC	–	–	–	–	–	> 100 µM	–	> 100 µM	–	> 100 µM	–	39.5 µM	–	> 100 µM	> 100 µM	> 100 µM	35.3 µM	–	–	–
Oc1ccccc1-c1nc2c3ccccc3c3ccccc3c2[nH]1	9.26 µM	20.8 µM	2.53 µM	15.2 µM	12.4 µM	24.9 µM	4.26 µM	15.6 µM	12.2 µM	24.6 µM	9.28 µM	21.2 µM	10.6 µM	22.6 µM	10.7 µM	–	6.48 µM	2.76 µM	1.55 µM	–
c1cc(CNC2C3CCC(C3)C2c2c[nH]c3ccccc23)cc(CNC2C3CCC(C3)C2c2c[nH]c3ccccc23)c1 (stereo not drawn)	–	3.39 µM	–	1.21 µM	–	2.26 µM	–	2.04 µM	–	–	1.89 µM and 1.74 µM	3.39 µM and 3.17 µM	–	–	3.38 µM	0.773 µM	2.33 µM and 2.63 µM	1.07 µM	1.09 µM and 1.29 µM	–
Cc1c2ccc(N(C)c3ccnc(Nc4cccc(S(N)(=O)=O)c4)n3)cc2nn1C	10.5 µM	> 25 µM	4.33 µM	> 22.9 µM	> 22.9 µM	> 25 µM	8.12 µM	> 25 µM	1.89 µM	> 17.9 µM	2.39 µM	> 20.4 µM	8.51 µM	> 25 µM	> 23.6 µM	–	17.9 µM	8.81 µM	5.41 µM	–
CC(C)Oc1cc(O)c2c(c1)OCC=C2CCC(=O)O	–	76.8 µM	–	> 100 µM	–	> 100 µM	–	> 100 µM	–	56.6 µM	–	–	–	> 100 µM	91 µM	> 100 µM	76.6 µM	–	–	–
COC(=O)C1=C(C(=O)OC)SC(=C(Cl)C(=S)Sc2ccccc2N)S1	30.9 µM	64.3 µM	32.8 µM	> 100 µM	32 µM	> 100 µM	22.7 µM	49.7 µM	–	–	18.3 µM	42.5 µM	29.1 µM	68.7 µM	> 100 µM	> 100 µM	> 100 µM	> 100 µM	46.4 µM	52.4 µM
COC(=O)C1=C(CS(=O)c2ccccc2[N+](=O)[O-])ON(C)C1c1ccccc1 (stereo not drawn)	–	> 100 µM	–	84.5 µM	–	> 100 µM	–	> 100 µM	–	> 100 µM	–	56.2 µM	–	94.6 µM	> 100 µM	–	–	–	–	–
O=[N+]([O-])c1ccc2c(c1)[O][Sn]([I])([I])[O]2	> 100 µM	> 100 µM	> 100 µM	> 100 µM	> 100 µM	> 100 µM	> 100 µM	> 100 µM	> 100 µM	> 100 µM	> 100 µM	> 100 µM	> 100 µM	> 100 µM	> 100 µM	–	> 100 µM	68.4 µM	> 100 µM	–
N.N.N.N.N.N.O=N[O-].[Br-].[Co+3].[Co+3].[OH3+].[OH3+]	> 100 µM	> 100 µM	> 100 µM	> 100 µM	> 100 µM	> 100 µM	> 100 µM	> 100 µM	–	–	> 100 µM	> 100 µM	> 100 µM	> 100 µM	> 100 µM	> 100 µM	> 100 µM	> 100 µM	> 100 µM	> 100 µM
S=c1nc(-c2cccnc2)[nH][nH]1	–	> 100 µM	–	> 100 µM	–	> 100 µM	–	> 100 µM	–	> 100 µM	–	–	–	> 100 µM	–	> 100 µM	> 100 µM	–	–	–
N#CC(NNC(=O)c1ccccc1O)c1cccc(O)c1 (stereo not drawn)	–	> 100 µM	–	> 100 µM	–	–	–	> 100 µM	–	–	–	18.5 µM	–	> 100 µM	> 100 µM	> 100 µM	> 100 µM	–	–	–
Cc1ccc2c(c1)C(c1cccc3ccccc13)OC2=O (stereo not drawn)	–	> 100 µM	–	> 100 µM	–	> 100 µM	–	> 100 µM	–	83.9 µM	–	–	–	> 100 µM	> 100 µM	> 100 µM	–	–	–	–
O=C1Nc2cccc3cc(NCC(O)CCl)cc1c23 (stereo not drawn)	–	> 100 µM	–	> 100 µM	–	> 100 µM	–	> 100 µM	–	–	–	–	–	> 100 µM	95.2 µM	48 µM	> 100 µM	–	–	–
C=C(C=O)CCCC(C)[C@@H]1CCC23CC12CCC1[C@@]2(C)CCC(OC(C)=O)C(C)(C)C2CC(OC2OC(COC(C)=O)C(O)C(O)C2O)[C@]13C (stereo partly drawn)	–	12.5 µM	–	11.4 µM	–	13.2 µM	–	9.78 µM	–	13.3 µM	–	11.4 µM	–	12.3 µM	3.03 µM	–	12.4 µM	–	–	–
CC1(C)C2CCC3(C2)CS(=O)(=O)N2OC231 (stereo not drawn)	–	32.9 µM	–	36.5 µM	–	> 100 µM	–	29.4 µM	–	44.5 µM	–	33.6 µM	–	47.2 µM	–	> 100 µM	25.2 µM	–	–	–
O=c1ccc(=O)c2c(=O)c3ccccc3c(=O)c1=2	–	> 100 µM	–	> 100 µM	–	> 100 µM	–	> 100 µM	–	> 100 µM	–	70.9 µM	–	> 100 µM	> 100 µM	–	> 100 µM	–	–	–
